Broadly, the Kd is the concentration at which binding is half-saturated.

In the test the target is T1, human Apo(a) protein (Homo sapiens, UniProt P08519).
T1 construct: biotin (biotinylated)
T1 sequence (P08519 20-2040): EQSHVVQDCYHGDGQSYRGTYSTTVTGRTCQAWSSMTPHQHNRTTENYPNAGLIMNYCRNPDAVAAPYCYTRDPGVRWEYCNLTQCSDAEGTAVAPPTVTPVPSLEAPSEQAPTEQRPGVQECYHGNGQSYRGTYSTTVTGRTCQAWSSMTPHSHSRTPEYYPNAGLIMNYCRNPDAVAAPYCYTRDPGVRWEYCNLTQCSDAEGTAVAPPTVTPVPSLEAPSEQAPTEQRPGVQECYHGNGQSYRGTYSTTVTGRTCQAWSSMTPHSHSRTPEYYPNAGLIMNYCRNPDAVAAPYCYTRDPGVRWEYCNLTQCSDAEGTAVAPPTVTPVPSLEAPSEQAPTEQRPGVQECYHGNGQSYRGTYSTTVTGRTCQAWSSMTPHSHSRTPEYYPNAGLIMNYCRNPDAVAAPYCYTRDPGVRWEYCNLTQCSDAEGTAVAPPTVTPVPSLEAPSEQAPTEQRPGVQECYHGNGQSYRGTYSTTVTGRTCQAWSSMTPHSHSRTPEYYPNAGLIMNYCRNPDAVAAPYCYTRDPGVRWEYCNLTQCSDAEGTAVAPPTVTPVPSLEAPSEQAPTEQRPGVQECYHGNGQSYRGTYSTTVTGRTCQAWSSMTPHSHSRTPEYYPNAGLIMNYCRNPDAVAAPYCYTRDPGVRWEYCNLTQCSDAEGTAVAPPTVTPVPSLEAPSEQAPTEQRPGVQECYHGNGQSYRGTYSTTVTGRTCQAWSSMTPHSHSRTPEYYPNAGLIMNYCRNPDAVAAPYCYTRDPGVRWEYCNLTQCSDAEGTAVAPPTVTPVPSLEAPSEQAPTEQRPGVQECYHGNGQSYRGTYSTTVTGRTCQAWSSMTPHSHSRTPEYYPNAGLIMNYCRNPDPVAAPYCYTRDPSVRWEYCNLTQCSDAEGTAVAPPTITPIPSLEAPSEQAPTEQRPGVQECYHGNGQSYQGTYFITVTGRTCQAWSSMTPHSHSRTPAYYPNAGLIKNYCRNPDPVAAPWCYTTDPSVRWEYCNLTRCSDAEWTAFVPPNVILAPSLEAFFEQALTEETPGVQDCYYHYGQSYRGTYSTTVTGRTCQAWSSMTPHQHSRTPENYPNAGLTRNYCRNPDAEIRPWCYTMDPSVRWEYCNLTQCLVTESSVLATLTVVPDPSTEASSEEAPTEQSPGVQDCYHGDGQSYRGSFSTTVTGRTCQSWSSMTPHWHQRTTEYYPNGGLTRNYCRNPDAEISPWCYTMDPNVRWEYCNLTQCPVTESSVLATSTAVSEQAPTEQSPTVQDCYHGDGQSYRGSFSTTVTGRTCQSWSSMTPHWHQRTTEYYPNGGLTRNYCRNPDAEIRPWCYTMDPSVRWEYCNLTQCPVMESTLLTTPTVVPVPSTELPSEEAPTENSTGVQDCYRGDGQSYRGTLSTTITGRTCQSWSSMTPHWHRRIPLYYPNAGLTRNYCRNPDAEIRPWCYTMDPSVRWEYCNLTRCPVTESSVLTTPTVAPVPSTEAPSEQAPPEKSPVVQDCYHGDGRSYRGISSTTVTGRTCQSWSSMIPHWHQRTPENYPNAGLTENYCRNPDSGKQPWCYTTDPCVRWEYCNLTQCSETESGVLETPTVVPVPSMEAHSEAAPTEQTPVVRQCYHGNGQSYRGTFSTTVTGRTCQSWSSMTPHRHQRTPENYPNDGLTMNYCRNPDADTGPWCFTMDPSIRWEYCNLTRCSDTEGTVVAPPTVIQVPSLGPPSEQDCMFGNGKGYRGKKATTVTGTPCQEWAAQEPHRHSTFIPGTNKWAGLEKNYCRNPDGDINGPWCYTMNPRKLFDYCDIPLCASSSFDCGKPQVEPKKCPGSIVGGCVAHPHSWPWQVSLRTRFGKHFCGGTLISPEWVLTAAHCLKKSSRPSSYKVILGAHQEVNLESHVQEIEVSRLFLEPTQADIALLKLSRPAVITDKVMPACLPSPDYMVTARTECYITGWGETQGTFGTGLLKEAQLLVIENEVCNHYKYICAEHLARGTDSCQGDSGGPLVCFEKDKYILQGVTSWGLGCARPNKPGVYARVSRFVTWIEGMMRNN
As to the kind of experiment: BLI affinity of compounds to Apo(a). Format: binding. The note with it: biotinylated apolipoprotein(a) on SA sensor, compound 100 nM. On the procedure: • 1. Experimental purpose: The purpose of this test is to test the affinity of the compounds of the present disclosure to Apo(a) • 2. Experimental instruments and reagents: • Molecular interaction analyzer (ForteBio Octet red 96e), • SA sensor (ForteBio), • 96-well plates were purchased from Greine, • 3. Experimental methods:
Prepared two 96-well plates, one as a sample plate and another as a pre-wett plate, curing buffer was added to a 200 μL well of the pre-wet plate, and the SA sensor was pre-wetted for at least ten minutes. All reagents and samples were added to another black sample plate, after the sample addition was completed, the sensor plate and the sample plate were placed into the ForteBio Octet red 96e instrument. The program was set up in sequence for detection. The experimental temperature was set to 30° C. and the acquisition frequency was set at 5.0 Hz. The biosensor was run in 1×PBS, pH7.4, 0.02% Tween-20, 0.1% BSA in the first column for 60 seconds, which was the baseline step. Biotinylated apolipoprotein(a) was diluted to 40 μg/ml with 1×PBS, pH7.4, 0.02% Tween-20, 0.1% BSA, and added to the second column, where it was run for a period of time until the amount of curing on the sensor reaches 2.0 nm. The biosensor was run in 1×PBS, pH7.4, 0.02% Tween-20, 0.1% BSA in the third column for 60 seconds, which was the baseline step. The compound was diluted to 100 nM with 1×PBS, pH7.4, 0.02% Tween-20, 0.1% BSA, and added to the fourth column, where the sensor was run for 60 seconds. The sensor was run in 1×PBS, pH7.4, 0.02% Tween-20, 0.1% BSA in the third column for 120 seconds, during this process, the compound dissociated from the sensor. The affinity constant KD reflects the size of the interaction binding ability. When the concentration of the analyte is at KD, the equilibrium signal Req is half of Rmax.
For `O=C(O)[C@@H](Cc1cccc(COC2CC(OCc3cccc(C[C@H](C(=O)O)[C@H]4CCNC4)c3)CC(OCc3cccc(C[C@H](C(=O)O)[C@H]4CCNC4)c3)C2)c1)[C@H]1CCNC1` (some centres unmarked) [Example 6], the dissociation constant Kd amounted to 19.9 nM. Molecule `O=C(O)[C@@H](Cc1cccc(Oc2nc(Oc3cccc(C[C@H](C(=O)O)[C@H]4CCNC4)c3)nc(Oc3cccc(C[C@H](C(=O)O)[C@H]4CCNC4)c3)n2)c1)[C@H]1CCNC1` [Example 7] returned a Kd of 8.06 nM. In the case of `O=C(NCCN(CCNC(=O)c1cccc(C[C@H](C(=O)O)[C@H]2CCNC2)c1)CCNC(=O)c1cccc(C[C@H](C(=O)O)[C@H]2CCNC2)c1)c1cccc(C[C@H](C(=O)O)[C@H]2CCNC2)c1` [Example 8], the Kd was 18.7 nM. For the molecule `O=C(O)[C@@H](Cc1cccc(OCc2cc(COc3cccc(C[C@H](C(=O)O)[C@H]4CCNC4)c3)cc(COc3cccc(C[C@H](C(=O)O)[C@H]4CCNC4)c3)c2)c1)[C@H]1CCNC1` [Example 10], the Kd was 25.3 nM. Take `O=C(O)[C@@H](Cc1cccc(CN(Cc2cccc(C[C@H](C(=O)O)[C@H]3CCNC3)c2)Cc2cccc(C[C@H](C(=O)O)[C@H]3CCNC3)c2)c1)C1CNC1` [Example 11]: the Kd was 14.2 nM.

These data come from patent publication US20260234125A1, “CYCLIC AMINE DERIVATIVE, AND COMPOSITION AND USE THEREOF” (SHANGHAI JINGXIN BIOMEDICAL CO., LTD., priority 2023, published 2026).
